Test results taken from patent US8399684B2, “Sulfonamide-based organocatalysts and method for their use” (State of Oregon acting by and through the State Board of …, priority 2007, dated 2013).
In brackets after ≈: the same amount, converted by molar mass.

What was measured:
[1] = Solubility of catalysts screened in methylene chloride (dichloromethane); type: physicochemical
Excerpt: In order to explore the effects of solvent polarity, the solubility of certain catalysts in methylene chloride was screened. Disclosed catalysts typically have a solubility of at least 10 milligrams/milliliter in dichloromethane, and typically at least 50 milligrams/milliliter in dichloromethane.
The absence of a significant non-polar region to the molecule may be the origin of this poor solubility. […] Sulfonamides are ideal choices for proline mimetics as their pKa has been documented to nicely match that of proline.
Ester-based catalysts according to the present disclosure also have markedly better solubilities than previously known compounds.

[2] = Solubility of catalysts under the intramolecular Michael addition conditions; type: physicochemical; settings: chlorinated reaction solvent, incl. lower temperatures; compared with tetrazole 11 and sulfonamides 12-14
Excerpt: Proline sulfonamides were tried next as potential organocatalysts. While these ligands have shown promise in certain organocatalyzed reactions, they previously have proven problematic in facilitating Michael addition processes. Proline sulfonamides performed well, providing improved enantiomeric excess (e.e.) at room temperature (Entries 6-8). […] This sulfonamide 15 is readily accessible from the commercially available para-dodecylsulfonylchloride (16) and Cbz-protected proline 18 in 3 steps (Scheme 16).

With `CCCCCCCCCCCCc1ccc(S(=O)(=O)NC(=O)C2CCCN2)cc1` (centres unmarked) [Sulfonamide 15, N-(p-dodecylphenylsulfonyl)-2-Pyrrolidinecarboxamide] the solubility in dichloromethane [1] was 300 mg/mL (≈ 710 mM) and the “solubility (in words)” value [2] was “greatly improved solubility properties”.
